Measurements reported in patent US7205004B2, “Herbal composition for treatment of neuronal injuries and neuronal degeneration, methods to prepare the same and uses thereof” (priority 2000, dated 2007).

Columns and labels:
Assay type in all cases: in vivo
mice [1] = details: mice n = 15; Bu-Nao-Gao oral 4 g/Kg daily, cyclophosphomide 0.03 g/kg i.m. every other day
Description: Mice were given Bu-Nao-Gao (oral at 4 g/Kg daily), or cyclophosphomide (0.03 g/kg, intramuscularly every other day) or saline (oral, daily). On day 3, mice were given 0.02 ml of 7% DNCB subcutaneously on the back, and were boosted three days later in the same way. 9 days later, 0.02 ml of 1% DNCB was applied to the left ear. This area was removed by a ear puncher of 9 mm diameter and the extent of ear swelling represents the extent of delayed-type hypersensitivity (for results, see Table 6).

mice [2] = assay: Effects on the weight of immune organs; details: mice n = 15, 7 days; Bu-Nao-Gao 4 g/Kg orally, hydrocortisone 50 mg/Kg intramuscularly
Description: Mice were randomly distributed, and were given Bu-Nao-Gao (4 g/Kg) orally, or hydrocortison (50 mg/Kg) or saline intramuscularly, for seven days. 24 hours after the last administration, mice were sacrificed.

mice [3] = assay: Effects on antibody production in mice (sheep erythrocyte immunization); details: mice n = 15, immunized with 10% sheep erythrocytes day 2, measured day 8; Bu-Nao-Gao 4 g/Kg orally, hydrocortisone 50 mg/Kg i.m., 7 days
Description: Mice were randomly distributed, and were given Bu-Nao-Gao (4 g/Kg) orally, or hydrocortison (50 mg/Kg) or saline intramuscularly, for seven days. On day 2, they were immunized with 10% sheep erythrocytes intra-peritoneally. On day 8, erythrocyte agglutination as well as cell lysis were measured respectively.

Compound | DNCB (extent of swolleness) (mice [1]) | Index of immune organ (mg/g X +/− SD), Spleen (mice [2]) | Index of immune organ (mg/g X +/− SD), thymus (mice [2]) | Agglutinin (33) (HC50) (mice [3]) | Erythorcytolysin (32) (mice [3])
O=P1(N(CCCl)CCCl)NCCCO1 (centres unmarked) [cyclo-phosphamidum, cyclophosphomide] | 12.26 +/− 8.8 |  |  |  | 
C[C@]12CCC(=O)C=C1CC[C@@H]1[C@@H]2[C@@H](O)C[C@@]2(C)[C@H]1CC[C@]2(O)C(=O)CO [Hydrocortisone] |  | 2.66 ± 0.40 mg/g | 1.37 ± 0.26 mg/g | 126.7 +/− 19.3 | 37.5 +/− 4.2
